From patent publication US11427561B2, “IRAK4 inhibiting agents” (BIOGEN MA INC., priority 2016, dated 2022) come the findings set out here.

Assay [1] has as its target IRAK4 (Homo sapiens (Human), UniProt Q9NWZ3). As to the kind of experiment: IRAK-4 biochemical assay, AlphaScreen format (phosphorylation of a biotin labeled peptide). Particulars: 1 nM IRAK4, 1.6 μM peptide, 1 mM ATP, 3.5 h at RT. The procedure: Biochemical Assay: The biochemical assay is in a AlphaScreen format. The kinase reaction is based on the IRAK-4 phosphorylation of a biotin labeled peptide. The phosphopeptide is incubated with anti-phosphothreonine antibody as well as streptavidin- and protein A-coated beads. Binding of the protein-A coated beads to the antibody and the streptavidin beads to the peptide, leads to an energy transfer from one bead to the other, ultimately producing a luminescent/fluorescent signal.
Generally, the kinase reaction is carried out at 1 nM IRAK4, 1.6 μM peptide, 1 mM ATP in reaction buffer 50 mM Hepes, 60 mM NaCl, 5 mM MgCl2, 0.25 mM MnCl2, 2 mM DTT, 0.01% BSA, 0.01% Tween-20) for 3.5 h at RT.
The compounds described herein were tested for in the above biochemical assay.
Background: Bead proximity is the source of the signal in Alpha formats.

For assay [2], the system named is A549 cells. As to the kind of experiment: Cell-based assay: IL-6 ELISA quantification in A549 cells stimulated with human IL-1beta. To be noted: 2 ng/ml human IL-1beta overnight. The procedure: Cell-based Assay: The cell-based assays is based on IL-6 ELISA quantification. Briefly, A549 cells are cultured in DMEM with 10% FBS medium. When cells reach 80% confluence they are trypsin treated and seeded 180 ul/well in 96-well plate at 2.5×10^4 cells/well. Then, 20 ul of compound serial dilutions (starting at 10 uM, 10 points) are added to the cell plate; incubate for 30 min at 37 C and stimulated with 2 ng/ml human IL-1beta 37 C, 5% CO2 overnight. The next day 100 ul of cell supernatant per well are analyzed on a Human IL-6 Quantikine ELISA kit from R&D Systems.
The compounds described herein were tested for in the above biochemical and cell-based assays.
(An ELISA detects its analyte on a solid surface through an enzyme-linked reagent.)

As usually defined, the IC50 is the midpoint of a concentration-inhibition curve. Read a low IC50 as higher potency. The term EC50 denotes the concentration at which the effect is half-maximal. Low readings indicate higher potency in that assay, high ones lower potency in that assay.

IRAK4, sequence (Q9NWZ3 whole entry, species assumed): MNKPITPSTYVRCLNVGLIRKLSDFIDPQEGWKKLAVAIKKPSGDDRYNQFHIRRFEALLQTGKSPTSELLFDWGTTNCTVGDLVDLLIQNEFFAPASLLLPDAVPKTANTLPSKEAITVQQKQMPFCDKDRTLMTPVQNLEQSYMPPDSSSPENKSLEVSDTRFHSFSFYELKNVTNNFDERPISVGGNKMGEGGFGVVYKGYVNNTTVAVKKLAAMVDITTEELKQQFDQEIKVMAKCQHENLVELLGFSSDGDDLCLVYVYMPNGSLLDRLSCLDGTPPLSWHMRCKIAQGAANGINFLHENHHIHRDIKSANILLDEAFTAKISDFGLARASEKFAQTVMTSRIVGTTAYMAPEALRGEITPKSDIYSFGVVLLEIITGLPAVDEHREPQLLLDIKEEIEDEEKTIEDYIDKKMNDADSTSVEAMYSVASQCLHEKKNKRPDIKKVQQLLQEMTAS

Take `N[C@H](c1cccc(-c2ccc3cnn(-c4cccc(CO)n4)c3c2)n1)C1CC(CO)C1` (stereo partly drawn) [Compound 1, (S)-(6-(6-(6-(amino(3-(hydroxymethyl)cyclobutyl)methyl)pyridin-2-yl)-1H-indazol-1-yl)pyridin-2-yl)methanol]: the IC50 in assay [1] is at most 100 nM. This compound returned an EC50 in assay [2] (Homo sapiens, A549, A549 cells) of at most 1000 nM. In assay [1], `N[C@H](c1cncc(-c2ccc3cnn(-c4cccc(C(F)(F)F)n4)c3c2)n1)[C@H]1C[C@@H](O)C1` [Compound 19, cis-3-((S)-amino(6-(1-(6-(trifluoromethyl)pyridin-2-yl)-1H-indazol-6-yl)pyrazin-2-yl)methyl)cyclobutanol] gave an IC50 of at most 100 nM. In the case of `N[C@@H](c1cccc(-c2ccc3cnn(-c4cccc(CO)n4)c3c2)n1)[C@H]1C[C@H](O)C1` [Compound 7, trans-3-((R)-amino(6-(1-(6-(hydroxymethyl)pyridin-2-yl)-1H-indazol-6-yl)pyridin-2-yl)methyl)cyclobutanol], in assay [1], the IC50 was at most 100 nM. The compound further registered an EC50 in assay [2] (Homo sapiens, A549, A549 cells) of at most 1000 nM. As to `NC(c1cccc(-c2ccc3cnn(-c4cccc(CO)n4)c3c2)n1)C1CCC(O)C1` (single isomer, unassigned) [Compound 22, 3-(amino(6-(1-(6-(hydroxymethyl)pyridin-2-yl)-1H-indazol-6-yl)pyridin-2-yl)methyl)cyclopentanol-B], the IC50 in assay [1] was at most 100 nM. In assay [2] (A549 cells), this compound came in with an EC50 of 1000 to 10000 nM.

`N[C@@H](c1cccc(-c2ccc3cnn(-c4cccc(CO)n4)c3c2)n1)C1(F)CCC1` [Compound 31, (S)-(6-(6-(6-(amino(1-fluorocyclobutyl)methyl)pyridin-2-yl)-1H-indazol-1-yl)pyridin-2-yl)methanol] yielded an IC50 in assay [1] of at most 100 nM.

Take `N[C@H](c1cncc(-c2ccc3cnn(-c4cccc(CO)n4)c3c2)n1)[C@H]1C[C@@H](O)C1` [Compound 17, cis-3-((S)-amino(6-(1-(6-(hydroxymethyl)pyridin-2-yl)-1H-indazol-6-yl)pyrazin-2-yl)methyl)cyclobutanol]: in assay [1], the IC50 is at most 100 nM. Moreover, in assay [2] (Homo sapiens, A549, A549 cells), the EC50 is at most 1000 nM. In assay [1], `CC1(O)CC([C@H](N)c2cccc(-c3ccc4cnn(-c5cccc(CF)n5)c4c3)n2)C1` (stereo partly drawn) [Compound 35f, 3-((S)-amino(6-(1-(6-(fluoromethyl)pyridin-2-yl)-1H-indazol-6-yl)pyridin-2-yl)methyl)-1-methylcyclobutan-1-ol] showed an IC50 of at most 100 nM. The compound also showed an EC50 in assay [2] (Homo sapiens, A549, A549 cells) of 1000 to 10000 nM. The corresponding values for `NC(c1cccc(-c2ccc3cnn(-c4cccc(CO)n4)c3c2)n1)C1CCC(O)C1` (single isomer, unassigned) [Compound 21, 3-(amino(6-(1-(6-(hydroxymethyl)pyridin-2-yl)-1H-indazol-6-yl)pyridin-2-yl)methyl)cyclopentanol-A] are at most 100 nM and at most 1000 nM. The corresponding values for `CCc1cccc(-n2ncc3ccc(-c4cccc([C@@H](N)[C@H]5C[C@@H](O)C5)n4)cc32)n1` [Compound 12, (1R,3s)-3-((S)-amino(6-(1-(6-ethylpyridin-2-yl)-1H-indazol-6-yl)pyridin-2-yl)methyl)cyclobutanol] are at most 100 nM and 1000 to 10000 nM. As to `CCOc1cc(-c2cccc([C@H](N)C3CC(F)(F)C3)n2)cc2c1cnn2-c1cccc(CO)n1` [Compound 33, (R)-(6-(6-(6-(amino(3,3-difluorocyclobutyl)methyl)pyridin-2-yl)-4-ethoxy-1H-indazol-1-yl)pyridin-2-yl)methanol], the IC50 in assay [1] was at most 100 nM. Also, in assay [2] (Homo sapiens, A549, A549 cells), the EC50 was at most 1000 nM. `CCc1ccnc(-n2ncc3ccc(-c4cccc([C@@H](N)[C@H]5C[C@@H](O)C5)n4)cc32)n1` [Compound 11, (1R,3S)-3-((S)-amino(6-(1-(4-ethylpyrimidin-2-yl)-1H-indazol-6-yl)pyridin-2-yl)methyl)cyclobutanol] registered an IC50 in assay [1] of 100 to 1000 nM. The same compound returned an EC50 in assay [2] (Homo sapiens, A549, A549 cells) of at most 1000 nM. Compound `CC1([C@H](N)c2cccc(-c3ccc4cnn(-c5cccc(CF)n5)c4c3)n2)CCC1` [Compound 35k, (S)-(6-(1-(6-(fluoromethyl)pyridin-2-yl)-1H-indazol-6-yl)pyridin-2-yl)(1-methylcyclobutyl)methanamine] displayed an EC50 in assay [2] (Homo sapiens, A549, A549 cells) of 1000 to 10000 nM.

As to `CC(O)c1ccnc(-n2ncc3ccc(-c4cccc([C@@H](N)[C@H]5C[C@@H](O)C5)n4)cc32)n1` (stereo partly drawn) [Compound 25, (1R,3s)-3-((1S)-amino(6-(1-(4-(1-hydroxyethyl)pyrimidin-2-yl)-1H-indazol-6-yl)pyridin-2-yl)methyl)cyclobutanol], the IC50 in assay [1] was at most 100 nM. The same compound returned an EC50 in assay [2] (Homo sapiens, A549, A549 cells) of 1000 to 10000 nM. The corresponding values for `N[C@H](c1cccc(-c2ccc3cnn(-c4cncc(CO)n4)c3c2)n1)[C@H]1C[C@@H](O)C1` [Compound 9, cis 3-((S)-amino(6-(1-(6-(hydroxymethyl)pyrazin-2-yl)-1H-indazol-6-yl)pyridin-2-yl)methyl)cyclobutanol] are at most 100 nM and at most 1000 nM.

For `N[C@H](c1cccc(-c2ccc3cnn(-c4cccc(CO)n4)c3c2)n1)[C@H]1C[C@H](O)C1` [Compound 6, trans-3-((S)-amino(6-(1-(6-(hydroxymethyl)pyridin-2-yl)-1H-indazol-6-yl)pyridin-2-yl)methyl)cyclobutanol], the IC50 in assay [1] is at most 100 nM. The compound further came in with an EC50 in assay [2] (Homo sapiens, A549, A549 cells) of at most 1000 nM. In turn, `N[C@H](c1cccc(-c2ccc3cnn(-c4cccc(CF)n4)c3c2)n1)C1CC(F)(F)C1` [Compound 29, (S)-(3,3-difluorocyclobutyl)(6-(1-(6-(fluoromethyl)pyridin-2-yl)-1H-indazol-6-yl)pyridin-2-yl)methanamine] returned an IC50 in assay [1] of at most 100 nM. In assay [2] (Homo sapiens, A549, A549 cells), this compound came in with an EC50 of at most 1000 nM. `COc1cccc(-n2ncc3ccc(-c4cccc([C@@H](N)C5CC(O)C5)n4)cc32)n1` (stereo partly drawn) [Compound 35e, (S)-3-(amino(6-(1-(6-methoxypyridin-2-yl)-1H-indazol-6-yl)pyridin-2-yl)methyl)cyclobutan-1-ol] showed an IC50 in assay [1] of 100 to 1000 nM. In assay [2] (Homo sapiens, A549, A549 cells), the EC50 was in the range of 1000 to 10000 nM. In turn, `N[C@H](c1cccc(-c2ccc3cnn(-c4cccc(CO)n4)c3c2)n1)C1(F)CCC1` [Compound 35c, (R)-(6-(6-(6-(amino(1-fluorocyclobutyl)methyl)pyridin-2-yl)-1H-indazol-1-yl)pyridin-2-yl) methanol] yielded an EC50 in assay [2] (Homo sapiens, A549, A549 cells) of 1000 to 10000 nM. Take `N[C@H](c1cccc(-c2ccc3cnn(-c4cccc(CO)n4)c3c2)n1)C1CC(CO)C1` (stereo partly drawn) [Compound 3, (S)-(6-(6-(6-(amino(3-(hydroxymethyl)cyclobutyl)methyl)pyridin-2-yl)-1H-indazol-1-yl)pyridin-2-yl)methanol]: the EC50 in assay [2] (A549 cells) is at most 1000 nM.

For `N[C@H](c1cccc(-c2ccc3cnn(-c4nccc(C(F)(F)F)n4)c3c2)n1)[C@H]1C[C@@H](O)C1` [Compound 13, (1R,3s)-3-((S)-amino(6-(1-(4-(trifluoromethyl)pyrimidin-2-yl)-1H-indazol-6-yl)pyridin-2-yl)methyl)cyclobutanol], the IC50 in assay [1] was at most 100 nM. In addition, the EC50 in assay [2] (Homo sapiens, A549, A549 cells) was at most 1000 nM. `N[C@@H](c1cccc(-c2ccc3cnn(-c4cccc(CO)n4)c3c2)n1)C1(F)CCC1` [Compound 35d, (S)-(6-(6-(6-(amino(1-fluorocyclobutyl)methyl)pyridin-2-yl)-1H-indazol-1-yl)pyridin-2-yl) methanol] yielded an EC50 in assay [2] (Homo sapiens, A549, A549 cells) of at most 1000 nM. With `N[C@H](c1cccc(-c2ccc3cnn(-c4cccc(CO)n4)c3c2)n1)C1(F)CCC1` [Compound 32, (R)-(6-(6-(6-(amino(1-fluorocyclobutyl)methyl)pyridin-2-yl)-1H-indazol-1-yl)pyridin-2-yl)methanol], the IC50 in assay [1] is at most 100 nM.

In assay [2] (Homo sapiens, A549, A549 cells), `CO[C@H]1C[C@H]([C@H](N)c2cccc(-c3ccc4cnn(-c5cccc(C(F)F)n5)c4c3)n2)C1` [Compound 35j, (S)-(6-(1-(6-(difluoromethyl)pyridin-2-yl)-1H-indazol-6-yl)pyridin-2-yl)((1R,3S)-3-methoxycyclobutyl)methanamine] had an EC50 of at most 1000 nM. The compound `N#CC1(c2cccc(-n3ncc4ccc(-c5cccc([C@@H](N)[C@H]6C[C@@H](O)C6)n5)cc43)n2)CC1` [Compound 20, 1-(6-(6-(6-((S)-amino(cis-3-hydroxycyclobutyl)methyl)pyridin-2-yl)-1H-indazol-1-yl)pyridin-2-yl)cyclopropanecarbonitrile] showed an IC50 in assay [1] of at most 100 nM. On the same count and under the same terms, for `N[C@H](c1cncc(-c2ccc3cnn(-c4cccc(CF)n4)c3c2)n1)[C@H]1C[C@@H](O)C1` [Compound 18, cis-3-((S)-amino(6-(1-(6-(fluoromethyl)pyridin-2-yl)-1H-indazol-6-yl)pyrazin-2-yl)methyl)cyclobutanol] the value was 100 to 1000 nM. Regarding `N#CC1CC([C@H](N)c2cccc(-c3ccc4cnn(-c5cccc(CF)n5)c4c3)n2)C1` (stereo partly drawn) [Compound 35l, (S)-3-(amino(6-(1-(6-(fluoromethyl)pyridin-2-yl)-1H-indazol-6-yl)pyridin-2-yl)methyl)cyclo butane-1-carbonitrile], in assay [2] (Homo sapiens, A549, A549 cells), the EC50 was at most 1000 nM.
